Experimental data published in patent publication US20160082066A1, “Method Use of Polymethoxyflavones (PMFs) in Body Composition Management” (priority 2014, published 2016).

Assays:
[1] = biological target: T1, catechol-O-methyltransferase (Homo sapiens, UniProt P21964); details: cited from earlier work
T1 sequence (P21964 1-271): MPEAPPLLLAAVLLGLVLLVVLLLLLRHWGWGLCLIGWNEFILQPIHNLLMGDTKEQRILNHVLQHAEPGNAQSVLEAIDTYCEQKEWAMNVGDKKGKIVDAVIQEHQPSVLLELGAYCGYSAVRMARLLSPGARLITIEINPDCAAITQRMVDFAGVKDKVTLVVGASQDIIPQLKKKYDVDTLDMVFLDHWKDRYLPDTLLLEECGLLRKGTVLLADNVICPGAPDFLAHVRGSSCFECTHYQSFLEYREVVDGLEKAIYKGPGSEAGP

3T3-L1 preadipocytes [2] = assay: Oil Red O lipid accumulation in differentiating 3T3-L1 preadipocytes; assay type: cell-based; details: DMI 2 days, then insulin medium with substance 8 days; absorbance at 520 nm; FIG. 1-3
Description: Ten days after the initiation of differentiation, lipid accumulation was measured by Oil Red O staining.
3T3-L1 preadipocytes were incubated with DMI (DMEM with IBMX, DEX and insulin) for two days, and then replaced with DMEM medium containing insulin with or without ECG, EGCG and PMFs at indicated concentrations, respectively for 8 days. The 3T3-L1preadipocytes were stained with Oil Red O and photographed. Lipid content was extracted from Oil Red O stained cells by 2-propanol and quantified with spectrophotometric analysis at 520 nm.
3T3-L1 preadipocytes were incubated with DMI (DMEM with IBMX, DEX and insulin) for two days, and then replaced with DMEM medium containing insulin with or without ECG, EGCG and PMFs at indicated concentrations, respectively for 8 days. The 3T3-L1preadipocytes were stained with Oil Red 0. Lipid content was extracted from Oil Red O stained cells by 2-propanol and quantified with spectrophotometric analysis at 520 nm.
3T3-L1 preadipocytes were incubated with DMI (DMEM with IBMX, DEX and insulin) for two days, and then replaced with DMEM medium containing insulin with or without Lychee extracts and PMFs, or in combination at indicated concentrations, respectively for 8 days. […] Lipid content was extracted from Oil Red O stained cells by 2-propanol and quantified with spectrophotometric analysis at 520 nm.

[3] = EGCG stand alone; young, healthy adults; cited from earlier work
[4] = test system: high-fat diet-induced obesity in mice; details: cited from earlier work
3T3-L1 preadipocytes [5] = details: tissue culture; cited from earlier work

| SMILES | catechol-O-methyltransferase activity [1] | lipid accumulation in differentiated adipocytes (Oil Red O staining) (3T3-L1 preadipocytes [2]) | resting metabolic rate (RMR) and thermal effects of feeding (TEF) [3] | obesity and insulin resistance [4] | differentiation of 3T3-L1 preadipocytes into adipocytes (3T3-L1 preadipocytes [5]) |
| --- | --- | --- | --- | --- | --- |
| O=C(O[C@@H]1Cc2c(O)cc(O)cc2O[C@@H]1c1cc(O)c(O)c(O)c1)c1cc(O)c(O)c(O)c1 [EGCG, epigallocatechin gallates] | inhibits | decreased only slightly | would not increase | – | – |
| O=C(O[C@@H]1Cc2c(O)cc(O)cc2O[C@@H]1c1ccc(O)c(O)c1)c1cc(O)c(O)c(O)c1 [ECG, epicatechin gallates] | – | decreased only slightly | – | – | – |
| COc1ccc(-c2cc(=O)c3c(OC)c(OC)c(OC)c(OC)c3o2)cc1OC [nobiletin] | – | – | – | alleviating obesity and insulin resistance | potently suppressing |
